{
  "source": "ChEMBL document CHEMBL3774308",
  "about": "“KATching-Up on Small Molecule Modulators of Lysine Acetyltransferases” (J Med Chem, 2016)",
  "key": {"[1]": {"molecular_target": "T1, Histone acetyltransferase p300 (Homo sapiens, UniProt Q09472)", "T1 sequence (Q09472 whole entry)": "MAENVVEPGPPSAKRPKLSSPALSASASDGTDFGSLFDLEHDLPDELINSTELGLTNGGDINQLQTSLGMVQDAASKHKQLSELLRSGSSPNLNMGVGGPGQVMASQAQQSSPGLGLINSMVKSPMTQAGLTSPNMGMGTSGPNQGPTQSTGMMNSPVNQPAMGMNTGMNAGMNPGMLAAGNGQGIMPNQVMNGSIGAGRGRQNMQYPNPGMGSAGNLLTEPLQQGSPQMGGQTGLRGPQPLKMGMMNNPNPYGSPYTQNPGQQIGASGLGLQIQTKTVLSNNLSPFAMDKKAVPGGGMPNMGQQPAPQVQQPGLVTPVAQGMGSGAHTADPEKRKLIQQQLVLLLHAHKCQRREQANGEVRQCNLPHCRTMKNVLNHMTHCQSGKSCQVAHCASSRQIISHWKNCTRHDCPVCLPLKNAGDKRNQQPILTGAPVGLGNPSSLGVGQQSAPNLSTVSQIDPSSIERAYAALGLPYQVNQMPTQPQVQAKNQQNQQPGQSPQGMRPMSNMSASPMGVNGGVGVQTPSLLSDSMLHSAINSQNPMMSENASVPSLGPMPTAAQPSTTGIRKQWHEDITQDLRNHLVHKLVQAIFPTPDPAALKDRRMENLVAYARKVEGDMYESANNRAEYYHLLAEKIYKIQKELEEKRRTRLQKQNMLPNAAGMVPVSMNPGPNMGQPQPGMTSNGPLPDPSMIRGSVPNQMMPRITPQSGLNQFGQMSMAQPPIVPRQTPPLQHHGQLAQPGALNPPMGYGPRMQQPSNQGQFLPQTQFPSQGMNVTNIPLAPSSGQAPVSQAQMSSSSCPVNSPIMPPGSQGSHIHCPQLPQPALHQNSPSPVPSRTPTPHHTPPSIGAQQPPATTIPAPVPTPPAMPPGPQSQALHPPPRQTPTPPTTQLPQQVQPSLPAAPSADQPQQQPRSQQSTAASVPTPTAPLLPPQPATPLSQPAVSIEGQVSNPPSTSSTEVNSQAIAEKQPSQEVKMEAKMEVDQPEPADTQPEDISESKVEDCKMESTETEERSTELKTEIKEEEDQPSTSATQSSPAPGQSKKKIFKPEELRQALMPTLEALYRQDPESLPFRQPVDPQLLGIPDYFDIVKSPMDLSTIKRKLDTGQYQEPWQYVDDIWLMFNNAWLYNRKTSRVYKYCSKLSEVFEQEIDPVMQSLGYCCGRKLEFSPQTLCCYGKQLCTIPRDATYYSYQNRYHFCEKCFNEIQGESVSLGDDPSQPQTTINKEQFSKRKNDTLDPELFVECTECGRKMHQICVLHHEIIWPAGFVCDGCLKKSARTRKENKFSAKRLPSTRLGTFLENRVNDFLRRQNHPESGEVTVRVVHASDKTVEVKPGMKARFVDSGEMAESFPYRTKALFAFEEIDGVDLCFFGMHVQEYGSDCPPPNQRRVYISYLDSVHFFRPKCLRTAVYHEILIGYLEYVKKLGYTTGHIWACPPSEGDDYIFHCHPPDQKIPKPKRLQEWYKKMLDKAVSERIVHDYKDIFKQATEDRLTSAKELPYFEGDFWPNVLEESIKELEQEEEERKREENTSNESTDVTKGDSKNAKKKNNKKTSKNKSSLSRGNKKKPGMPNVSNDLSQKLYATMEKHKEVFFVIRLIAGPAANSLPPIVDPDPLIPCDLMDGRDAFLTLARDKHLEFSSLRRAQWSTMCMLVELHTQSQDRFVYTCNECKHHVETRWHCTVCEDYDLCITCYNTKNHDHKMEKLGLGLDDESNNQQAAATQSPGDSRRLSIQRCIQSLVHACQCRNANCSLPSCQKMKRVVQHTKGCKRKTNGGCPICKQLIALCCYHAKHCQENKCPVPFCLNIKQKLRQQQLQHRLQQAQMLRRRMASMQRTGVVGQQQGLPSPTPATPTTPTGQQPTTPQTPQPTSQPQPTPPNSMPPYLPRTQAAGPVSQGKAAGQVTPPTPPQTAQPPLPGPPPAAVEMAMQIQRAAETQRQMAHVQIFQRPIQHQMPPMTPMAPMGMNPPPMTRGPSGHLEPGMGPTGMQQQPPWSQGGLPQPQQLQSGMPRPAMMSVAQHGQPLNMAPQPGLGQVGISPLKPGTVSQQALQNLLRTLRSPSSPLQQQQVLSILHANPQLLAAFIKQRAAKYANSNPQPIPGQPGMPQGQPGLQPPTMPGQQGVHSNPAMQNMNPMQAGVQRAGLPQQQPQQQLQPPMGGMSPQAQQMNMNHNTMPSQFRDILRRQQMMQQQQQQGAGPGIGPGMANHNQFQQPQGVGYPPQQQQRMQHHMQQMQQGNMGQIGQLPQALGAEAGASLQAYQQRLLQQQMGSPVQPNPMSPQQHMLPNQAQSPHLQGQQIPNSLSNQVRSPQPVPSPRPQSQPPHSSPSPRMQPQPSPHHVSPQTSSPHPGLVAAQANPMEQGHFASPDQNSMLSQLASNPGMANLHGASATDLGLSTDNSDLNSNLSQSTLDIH", "experiment": "Inhibition of full length recombinant human His6-tagged p300 expressed in baculovirus infected Sf21 cells using N-terminal H3 peptide substrate after 10 mins by radiometric filter binding assay in presence of [3H]acetyl-CoA"}, "[2]": {"molecular_target": "T1, Histone acetyltransferase p300", "experiment": "Activation of full length recombinant human His6-tagged p300 expressed in baculovirus infected Sf21 cells using N-terminal H3 peptide substrate at 275 uM after 10 mins by radiometric filter binding assay in presence of [3H]acetyl-CoA relative to control"}, "[3]": {"molecular_target": "T1, Histone acetyltransferase p300", "experiment": "Inhibition of full length recombinant His6-tagged p300 (unknown origin) expressed in baculovirus expression system using histone substrate after 10 mins by liquid scintillation counting method in presence of [3H]acetyl-CoA"}, "[4]": {"molecular_target": "T2, Histone acetyltransferase KAT2B (Homo sapiens, UniProt Q92831)", "experiment": "Inhibition of recombinant PCAF (unknown origin) expressed in baculovirus expression system using histone substrate after 10 mins by liquid scintillation counting method in presence of [3H]acetyl-CoA"}, "[5]": {"molecular_target": "T2, Histone acetyltransferase KAT2B", "experiment": "Inhibition of PCAF (unknown origin) using N-terminal histone H3-20 peptide substrate incubated for 3.5 mins by liquid scintillation counting method in presence of [3H]acetyl-CoA"}, "[6]": {"molecular_target": "T1, Histone acetyltransferase p300", "experiment": "Inhibition of p300 (unknown origin) using N-terminal histone H4-20 peptide substrate incubated for 10 mins by liquid scintillation counting method in presence of [14C]acetyl-CoA"}, "[7]": {"molecular_target": "T3, Histone acetyltransferase KAT5 (Homo sapiens, UniProt Q92993)", "experiment": "Inhibition of full length TIP60 (unknown origin) expressed in Escherichia coli using N-terminal histone H4-20 peptide substrate incubated for 10 mins by liquid scintillation counting method in presence of [3H]acetyl-CoA"}, "[8]": {"molecular_target": "T4, Histone acetyltransferase ESA1 (Saccharomyces cerevisiae (strain ATCC 204508 / S288c) (Baker's yeast), UniProt Q08649)", "T4 sequence (Q08649 whole entry)": "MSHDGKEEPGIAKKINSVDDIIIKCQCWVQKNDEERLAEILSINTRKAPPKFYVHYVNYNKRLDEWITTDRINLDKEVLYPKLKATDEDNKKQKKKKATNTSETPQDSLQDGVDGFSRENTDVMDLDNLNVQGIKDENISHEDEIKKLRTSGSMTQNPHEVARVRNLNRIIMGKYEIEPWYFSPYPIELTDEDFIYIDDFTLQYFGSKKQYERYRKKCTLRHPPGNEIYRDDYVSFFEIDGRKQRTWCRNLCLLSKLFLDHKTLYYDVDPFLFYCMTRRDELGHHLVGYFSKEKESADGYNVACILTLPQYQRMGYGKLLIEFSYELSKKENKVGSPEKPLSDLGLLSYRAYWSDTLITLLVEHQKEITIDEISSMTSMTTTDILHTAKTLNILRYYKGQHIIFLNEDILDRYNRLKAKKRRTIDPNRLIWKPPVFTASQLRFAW", "experiment": "Inhibition of yeast ESA1 using N-terminal histone H3 substrate by radiometric filter binding based […] in presence of [3H]acetyl-CoA"}, "[9]": {"molecular_target": "T1, Histone acetyltransferase p300", "experiment": "Inhibition of full length recombinant His6-tagged p300 (unknown origin) expressed in baculovirus infected sf21 cells using histone substrate after 10 mins by liquid scintillation counting method in presence of [3H]acetyl-CoA"}, "[10]": {"molecular_target": "T5, Histone acetyltransferase KAT2A (Homo sapiens, UniProt Q92830)", "experiment": "Inhibition of recombinant human GCN5 catalytic domain (497 to 663 residues) expressed in Escherichia coli using histone H3 (5 to 23 residues) as substrate at 800 uM after 1 hr by liquid scintillation counting method in presence of [3H]acetyl-CoA relative to control"}, "[11]": {"molecular_target": "T2, Histone acetyltransferase KAT2B", "experiment": "Inhibition of recombinant human PCAF catalytic domain (492 to 658 residues) expressed in Escherichia coli using histone H3 (5 to 23 residues) as substrate at 800 uM after 1 hr by liquid scintillation counting method in presence of [3H]acetyl-CoA relative to control"}, "[12]": {"molecular_target": "T1, Histone acetyltransferase p300", "experiment": "Inhibition of full length recombinant His6-tagged p300 (unknown origin) expressed in baculovirus expression system using histone substrate at 25 uM after 10 mins by liquid scintillation counting method in presence of [3H]acetyl-CoA relative to control"}, "[13]": {"molecular_target": "T3, Histone acetyltransferase KAT5", "experiment": "Inhibition of TIP60 (unknown origin) expressed in bacterial system using histone substrate at 25 uM after 10 mins by liquid scintillation counting method in presence of [3H]acetyl-CoA relative to control"}, "[14]": {"molecular_target": "T2, Histone acetyltransferase KAT2B", "experiment": "Inhibition of full length recombinant FLAG-tagged PCAF (unknown origin) expressed in baculovirus expression system using histone substrate after 10 mins by liquid scintillation counting method in presence of [3H]acetyl-CoA"}, "[15]": {"molecular_target": "T2, Histone acetyltransferase KAT2B", "experiment": "Inhibition of PCAF (unknown origin) using N-terminal histone H3 substrate by radiometric filter binding based phenotypic screen in presence of [3H]acetyl-CoA"}, "[16]": {"molecular_target": "T1, Histone acetyltransferase p300", "experiment": "Inhibition of recombinant p300 catalytic domain (unknown origin) using N-terminal histone H3 substrate by radiometric filter binding based phenotypic screen in presence of [3H]acetyl-CoA"}, "[17]": {"molecular_target": "CREB-binding protein (Homo sapiens, UniProt Q92793)", "sequence (Q92793 2-2442 limits assumed)": "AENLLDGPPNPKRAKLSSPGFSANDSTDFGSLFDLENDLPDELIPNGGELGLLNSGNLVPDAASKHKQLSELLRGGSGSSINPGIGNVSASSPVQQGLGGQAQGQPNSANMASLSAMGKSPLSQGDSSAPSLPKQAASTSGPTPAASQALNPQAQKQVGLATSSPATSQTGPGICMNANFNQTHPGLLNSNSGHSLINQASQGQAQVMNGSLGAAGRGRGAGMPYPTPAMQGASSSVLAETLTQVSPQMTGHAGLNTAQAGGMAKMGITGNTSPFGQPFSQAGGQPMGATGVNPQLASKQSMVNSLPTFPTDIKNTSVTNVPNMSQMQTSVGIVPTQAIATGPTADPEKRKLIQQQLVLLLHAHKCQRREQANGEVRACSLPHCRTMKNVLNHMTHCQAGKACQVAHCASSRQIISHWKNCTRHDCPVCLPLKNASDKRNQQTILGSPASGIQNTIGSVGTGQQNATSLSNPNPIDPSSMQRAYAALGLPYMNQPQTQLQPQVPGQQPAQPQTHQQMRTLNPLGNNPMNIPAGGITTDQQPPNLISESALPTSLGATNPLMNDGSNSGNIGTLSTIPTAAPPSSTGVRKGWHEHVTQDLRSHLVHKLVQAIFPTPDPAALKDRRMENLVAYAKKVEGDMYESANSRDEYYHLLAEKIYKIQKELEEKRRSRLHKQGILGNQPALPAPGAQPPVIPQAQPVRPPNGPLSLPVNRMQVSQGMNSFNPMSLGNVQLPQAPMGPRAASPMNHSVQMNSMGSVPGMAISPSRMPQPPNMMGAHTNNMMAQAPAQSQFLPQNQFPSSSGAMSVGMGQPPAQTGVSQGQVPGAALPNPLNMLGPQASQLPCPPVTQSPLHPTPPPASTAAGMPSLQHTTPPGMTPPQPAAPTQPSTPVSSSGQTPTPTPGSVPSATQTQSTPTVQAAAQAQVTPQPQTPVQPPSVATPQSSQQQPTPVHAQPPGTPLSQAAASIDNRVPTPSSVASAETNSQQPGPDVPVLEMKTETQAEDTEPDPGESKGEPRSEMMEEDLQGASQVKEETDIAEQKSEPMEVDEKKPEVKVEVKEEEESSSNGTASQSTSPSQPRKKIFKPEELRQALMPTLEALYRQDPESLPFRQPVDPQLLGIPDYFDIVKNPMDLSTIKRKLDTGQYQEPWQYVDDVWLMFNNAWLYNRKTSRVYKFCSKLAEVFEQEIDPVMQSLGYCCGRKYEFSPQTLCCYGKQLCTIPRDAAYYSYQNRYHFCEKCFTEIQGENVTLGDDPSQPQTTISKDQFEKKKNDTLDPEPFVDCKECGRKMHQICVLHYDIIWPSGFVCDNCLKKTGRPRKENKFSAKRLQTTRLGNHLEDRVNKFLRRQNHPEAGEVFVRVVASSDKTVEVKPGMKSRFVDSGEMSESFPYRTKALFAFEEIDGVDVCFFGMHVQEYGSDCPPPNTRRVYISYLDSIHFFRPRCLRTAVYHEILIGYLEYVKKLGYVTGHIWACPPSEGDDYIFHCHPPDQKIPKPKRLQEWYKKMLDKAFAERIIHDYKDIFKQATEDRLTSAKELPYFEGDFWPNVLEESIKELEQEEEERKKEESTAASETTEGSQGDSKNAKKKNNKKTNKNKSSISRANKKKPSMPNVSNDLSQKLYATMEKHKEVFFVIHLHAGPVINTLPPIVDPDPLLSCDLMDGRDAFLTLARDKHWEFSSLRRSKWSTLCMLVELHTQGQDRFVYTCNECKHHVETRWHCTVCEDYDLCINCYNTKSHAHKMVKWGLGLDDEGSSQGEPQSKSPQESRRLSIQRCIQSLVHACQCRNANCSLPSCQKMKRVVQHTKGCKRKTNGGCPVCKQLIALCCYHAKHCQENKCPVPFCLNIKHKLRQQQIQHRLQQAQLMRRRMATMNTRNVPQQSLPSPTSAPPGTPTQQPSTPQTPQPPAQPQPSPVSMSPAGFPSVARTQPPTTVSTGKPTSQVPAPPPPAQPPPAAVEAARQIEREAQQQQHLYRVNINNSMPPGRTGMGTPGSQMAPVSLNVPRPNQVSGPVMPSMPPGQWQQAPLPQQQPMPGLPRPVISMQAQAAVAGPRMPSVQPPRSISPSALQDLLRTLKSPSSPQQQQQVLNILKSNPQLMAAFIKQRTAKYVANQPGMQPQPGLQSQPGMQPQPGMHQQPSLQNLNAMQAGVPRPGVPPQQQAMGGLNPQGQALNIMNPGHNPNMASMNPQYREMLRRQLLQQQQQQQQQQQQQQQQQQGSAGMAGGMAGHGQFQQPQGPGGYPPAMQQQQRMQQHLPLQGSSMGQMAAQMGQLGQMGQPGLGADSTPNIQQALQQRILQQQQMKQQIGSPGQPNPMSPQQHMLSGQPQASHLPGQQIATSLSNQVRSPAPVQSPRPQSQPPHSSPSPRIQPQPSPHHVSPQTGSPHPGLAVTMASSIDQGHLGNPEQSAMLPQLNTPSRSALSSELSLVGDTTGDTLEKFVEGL", "experiment": "Inhibition of CBP (unknown origin) using N-terminal histone H3 substrate at 100 uM by radiometric filter binding based phenotypic screen in presence of [3H]acetyl-CoA relative to control"}, "[18]": {"molecular_target": "T3, Histone acetyltransferase KAT5", "experiment": "Inhibition of TIP60 (unknown origin) using N-terminal histone H3 substrate at 100 uM by […] in presence of [3H]acetyl-CoA relative to control"}, "[19]": {"molecular_target": "T1, Histone acetyltransferase p300", "experiment": "Inhibition of recombinant p300 catalytic domain (unknown origin) using N-terminal histone H3 substrate by orthogonal fluorescence assay in presence of [3H]acetyl-CoA"}, "[20]": {"molecular_target": "Histone acetyltransferase KAT7 (Homo sapiens) (UniProt O95251)", "experiment": "Inhibition of HBO1 (unknown origin) using N-terminal histone H3 substrate at 100 uM by […] in presence of [3H]acetyl-CoA relative to control"}, "[21]": {"molecular_target": "T5, Histone acetyltransferase KAT2A", "experiment": "Inhibition of GCN5 (unknown origin) using N-terminal histone H3 substrate by radiometric filter binding based phenotypic screen in presence of [3H]acetyl-CoA"}, "[22]": {"molecular_target": "T1, Histone acetyltransferase p300", "experiment": "Inhibition of recombinant p300 catalytic domain (unknown origin) using N-terminal histone H3 substrate at 52 uM by orthogonal fluorescence assay in presence of [3H]acetyl-CoA relative to control"}, "[23]": {"molecular_target": "T1, Histone acetyltransferase p300", "experiment": "Inhibition of recombinant p300 catalytic domain (unknown origin) using N-terminal histone H3 substrate by radiometric filter binding assay in presence of [3H]acetyl-CoA"}},
  "data": [
    {"smiles": "C=C(C)[C@@H](/C=C/C(C)C)C[C@@]12C[C@@H](/C=C\\C(C)C)C(C)(C)[C@@](CC=C(C)C)(C(=O)C(C(=O)c3ccc(O)c(O)c3)=C1O)C2=O", "values": [
      {"measurement": "IC50", "setting": "[1]", "value": 7, "unit": "µM"}
    ]},
    {"smiles": "CCCCCCCCCCCCCCCc1cccc(OCC)c1C(=O)Nc1ccc(Cl)c(C(F)(F)F)c1", "values": [
      {"measurement": "Emax", "setting": "[2]", "value": 400, "unit": "%"}
    ]},
    {"smiles": "CC1=CC(=O)c2c(O)cccc2C1=O", "note": "[PLUMBAGIN]", "values": [
      {"measurement": "IC50", "setting": "[3]", "value": 20, "unit": "µM"},
      {"measurement": "IC50", "setting": "[4]", "value": 50, "unit": "µM"}
    ]},
    {"smiles": "COc1ccc(C2CC(c3cccs3)=NN2c2nc(-c3ccc(N4C(=O)c5ccccc5C4=O)cc3)cs2)cc1OC", "note": "(stereo not drawn)", "values": [
      {"measurement": "IC50", "setting": "[5]", "value": "> 100", "unit": "µM"},
      {"measurement": "IC50", "setting": "[6]", "value": 150, "unit": "µM"},
      {"measurement": "IC50", "setting": "[7]", "value": 149, "unit": "µM"},
      {"measurement": "IC50", "setting": "[8]", "value": 190, "unit": "µM"}
    ]},
    {"smiles": "COc1ccc(C(=O)C2=C3OC(C)(C)[C@@H](CC=C(C)C)C[C@@]34C[C@@H](/C=C\\C(C)C)C(C)(C)[C@@](CC=C(C)C)(C2=O)C4=O)cc1O", "values": [
      {"measurement": "IC50", "setting": "[9]", "value": 5, "unit": "µM"}
    ]},
    {"smiles": "CC1CC/C(=N/Nc2nc(-c3ccc(Cl)cc3)cs2)C1", "note": "(stereo not drawn)", "values": [
      {"measurement": "inhibition", "setting": "[10]", "value": 40, "unit": "%"},
      {"measurement": "inhibition", "setting": "[11]", "value": 40, "unit": "%"}
    ]},
    {"smiles": "CCCCCCCCCCCC1=C(O)C(=O)C=C(O)C1=O", "note": "[EMBELIN]", "values": [
      {"measurement": "inhibition", "setting": "[12]", "value": 75, "unit": "%"},
      {"measurement": "inhibition", "setting": "[13]", "value": 75, "unit": "%"},
      {"measurement": "IC50", "setting": "[14]", "value": 7.2, "unit": "µM"}
    ]},
    {"smiles": "COc1ccc(S(=O)(=O)ON=C2C=C(C)C(=O)C(C)=C2)cc1", "values": [
      {"measurement": "IC50", "setting": "[15]", "value": 34.7, "unit": "µM"},
      {"measurement": "IC50", "setting": "[16]", "value": 128, "unit": "µM"},
      {"measurement": "inhibition", "setting": "[17]", "value": 32, "unit": "%"},
      {"measurement": "inhibition", "setting": "[18]", "value": 2, "unit": "%"},
      {"measurement": "IC50", "setting": "[19]", "value": 1.98, "unit": "µM"},
      {"measurement": "inhibition", "setting": "[20]", "value": 1, "unit": "%"},
      {"measurement": "IC50", "setting": "[21]", "value": 33.9, "unit": "µM"}
    ]},
    {"smiles": "CCCCCCCCCCCCCCCc1cccc(O)c1C(=O)O", "note": "[ANACARDIC ACID]", "values": [
      {"measurement": "%max", "setting": "[22]", "value": 60, "unit": "%"},
      {"measurement": "IC50", "setting": "[23]", "value": 4.15, "unit": "µM"}
    ]}
  ]
}
